From PMC1977344 (British Journal of Cancer, 1992)
Where two headings read alike, the source gives them in different places.

Experiments:
mu 2 receptor [1] = target: T1, mu 2 receptor (Rattus norvegicus, UniProt P33535); settings: for specific binding of the 3H-ligand remaining, mu 2 assay: test substance at 5 µM (5 pM in methods); for fold lower affinity of M6G than morphine at the mu 2 receptor (IC50 ratio): from mean IC50s
delta receptor [2] = target: T2, delta receptor (Rattus norvegicus, UniProt P33533); assay: Radioligand binding, delta assay (3H-DSLET displacement with DAGO block, rat brain P2 homogenate); parameters: species or system Wistar rats
T2 construct: from tissue

mu 1 receptor = mu 1 receptor (Rattus norvegicus, UniProt P33535); assay: Radioligand binding, mu 1 assay (3H-DSLET displacement with DPDPE block, rat brain P2 homogenate); parameters: species or system Wistar rats
[3] = target: T3, total mu (mu 1 and mu 2) receptor (Rattus norvegicus, UniProt P33535); assay: Radioligand binding, total mu assay (3H-DAGO displacement, rat brain P2 homogenate); parameters: species or system Wistar rats; specific binding of the 3H-ligand remaining, total mu assay: dose or concentration left out as unconfirmed
T3 construct: from tissue

[4] = ref Shimomum et al. (1971); cited from earlier work
mu 2 receptor [5] = target: T1, mu 2 receptor; assay: biochemical; settings: IC50 mu 2 receptor
delta receptor [6] = test system: delta receptor; parameters: method as in Oguri et al. (1987); settings: 3H-leucine enkephalin; ref Oguri et al. (1987); cited from earlier work
[7] = open study in man; ref Osborne et al., 1989; cited from earlier work
kappa receptor = test system: kappa receptor; parameters: method as in Pasternak et al., 1987; settings: not yet accurately determined; ref Pasternak et al., 1987; cited from earlier work
[8] = normal volunteers; ref Thompson et al., 1990; cited from earlier work
[9] = cited from earlier work
[10] = test substance at 5 µM (5 pM in methods)

T2 sequence (P33533 whole entry): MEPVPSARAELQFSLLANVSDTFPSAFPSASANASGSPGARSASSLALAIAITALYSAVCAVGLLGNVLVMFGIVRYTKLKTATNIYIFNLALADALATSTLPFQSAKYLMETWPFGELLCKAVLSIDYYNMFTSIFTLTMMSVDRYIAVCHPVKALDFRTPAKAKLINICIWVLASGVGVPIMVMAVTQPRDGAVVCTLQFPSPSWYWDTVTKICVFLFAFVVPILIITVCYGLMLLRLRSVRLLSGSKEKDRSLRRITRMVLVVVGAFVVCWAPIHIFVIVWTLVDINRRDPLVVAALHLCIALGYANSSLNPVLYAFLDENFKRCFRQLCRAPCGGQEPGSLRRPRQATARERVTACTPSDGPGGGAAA
Chain of mu 1 receptor (P33535 whole entry): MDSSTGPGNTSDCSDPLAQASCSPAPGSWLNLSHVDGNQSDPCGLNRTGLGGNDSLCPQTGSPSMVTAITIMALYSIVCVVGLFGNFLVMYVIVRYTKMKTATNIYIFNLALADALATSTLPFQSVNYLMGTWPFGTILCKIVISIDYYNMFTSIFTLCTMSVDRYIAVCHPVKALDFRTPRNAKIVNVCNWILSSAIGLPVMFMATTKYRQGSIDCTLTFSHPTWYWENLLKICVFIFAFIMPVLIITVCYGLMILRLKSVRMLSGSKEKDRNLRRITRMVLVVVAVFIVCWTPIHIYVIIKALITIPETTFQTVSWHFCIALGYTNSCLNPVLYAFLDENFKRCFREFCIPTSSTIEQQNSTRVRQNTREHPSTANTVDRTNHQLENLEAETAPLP
T1 sequence (P33535 whole entry): as above
T3 sequence (P33535 whole entry): as above

Structure (SMILES): CN1CC[C@@]23CCCC[C@@H]2[C@@H]1Cc1ccc(O)cc13 [dextrorphan]
- specific binding of the 3H-ligand remaining, mu 2 assay (mu 2 receptor [1]): 72%
- specific binding of the 3H-ligand remaining, delta assay (delta receptor [2]; [10]): no inhibition was observed
- specific binding of the 3H-ligand remaining, mu 1 assay (mu 1 receptor; [10]): no inhibition was observed
- specific binding of the 3H-ligand remaining, total mu assay [3]: 70%

Structure (SMILES): CN1CC[C@]23CCCC[C@H]2[C@H]1Cc1ccc(O)cc13 [levorphanol]
- specific binding of the 3H-ligand remaining, mu 2 assay (mu 2 receptor [1]): 28%
- specific binding of the 3H-ligand remaining, delta assay (delta receptor [2]): 0%
- specific binding of the 3H-ligand remaining, mu 1 assay (mu 1 receptor): 1%
- specific binding of the 3H-ligand remaining, total mu assay [3]: 0%

Structure (SMILES): CN1CC[C@]23c4c5ccc(O)c4O[C@H]2[C@@H](O[C@@H]2O[C@H](C(=O)O)[C@@H](O)[C@H](O)[C@H]2O)C=C[C@H]3[C@H]1C5 [M6G, morphine 6-glucuronide]
- systemic LD50 relative to that of morphine [4]: 88%
- IC50 (mu 2 receptor [5]; brain minus hypothalami, P2 fraction, 3H-DAGO 1.5 nM, DSLET 5 nM block, mean ± SEM): 82 nM
- IC50 (mu 2 receptor [5]; whole brain preparations, P2 fraction of whole rat brain homogenate, single assay): 66 nM
- fold lower affinity of M6G than morphine at the mu 2 receptor (IC50 ratio) (mu 2 receptor [1]): 4.8 fold
- fold lower affinity of M6G than morphine at the mu 2 receptor (IC50 ratio) (mu 2 receptor [1]; listed as Morphine 6-glucuronide): 4 fold
- affinity for the delta receptor relative to morphine (delta receptor [6]): slightly higher affinity
- IC50 (delta receptor [2]): 75 nM
- IC50 (mu 1 receptor; read-out: IC50 mu 1 receptor, whole brain preparations, P2 fraction of whole rat brain homogenate, single assay): 170 nM
- nausea or sedation at doses sufficient to give significant pain relief [7]: no nausea or sedation was seen
- affinity for the kappa receptor (kappa receptor): thought to be low
- nausea and sedation versus morphine [8]: less nausea and no sedation
- respiratory depression versus equipotent dose of morphine [8]: significantly less respiratory depression
- systemic analgesic potency advantage over morphine ([9]; systemic, ref Shimomura et al., 1971, Abbott & Palmour, 1988): 3 fold
- IC50 [3]: 80 nM

Structure (SMILES): CN1CC[C@]23c4c5ccc(O[C@@H]6O[C@H](C(=O)O)[C@@H](O)[C@H](O)[C@H]6O)c4O[C@H]2[C@@H](O)C=C[C@H]3[C@H]1C5 [M3G, morphine 3-glucuronide]
- analgesic activity ([9]; ref Osborne et al., 1986, Hanks et al., 1987, Hoskin & Hanks, 1990): devoid of analgesic activity
